Test results as given in patent publication US7097825B2, “Methods and reagents to acquire MRI signals and images” (Allos Therapeutics, Inc., priority 2001, dated 2006).

Columns and labels:
hemoglobin = target: T1, hemoglobin (Mus musculus, UniProt P01942+P02088); conditions: 20–40 min after 300 mg/kg RSR13 injection into mice; cited from earlier work
T1 construct: after a 300 mg/kg RSR13 injection into mice; host or cells: blood (erythrocytes) of mice injected with RSR13; endogenous hemoglobin

tumors = conditions: previous studies, fractionated radiotherapy; cited from earlier work
[1] = test system: NCI-H460 human large cell lung carcinoma xenografts; test: BOLD MRI signal ratio in tumors after RSR13 injection; format: in vivo, athymic nude mice; conditions: for Change in BOLD MRI signal: (Intensity (t = 30 min)/Intensity (t = 0)): 30 min after injection, preliminary
Experimental: (§1) NCI-H460 human large cell lung carcinoma cells were obtained from the American Type Culture Collection (ATCC). H460 cells were cultured at 37° C., 5% CO2 in RPMI 1640 medium (Gibco BRL, Gaithersburg, Md.)+10% fetal bovine serum (Gibco)+50 U/ml penicillin (Gibco)+50 μg/ml streptomycin (Gibco). Cells were routinely passaged using 0.05% trypsin-EDTA. Human NIH-H460 cells were used as a xenograft model in female athymic nude mice (nu/nu, 5–6 weeks old). Cells at 80% confluence were trypsinized, resuspended in growth medium, and counted. Cells were then centrifuged and resuspended in 37° C. PBS at 2×10^7 cells/ml. A suspension of 2×10^6 cells in a 0.1 ml volume was injected subcutaneously (s.c.) into the left posterior flank. Tumors were allowed to grow for 2 weeks (about 1 cm^3) before imaging, or for 7 days prior to treatment with RSR13 and radiation.
Mice with tumors were anesthetized with 0.05 cc of a ketamine (100 mg/ml) and acepromezine (2.5 mg/0.25 ml) cocktail (induction anesthesia). A 24G angiocath, attached to a syringe with the appropriate amount of RSR13, was then placed and secured intraperitoneally (i.p.). Mice were placed in a pre-warmed anesthesia chamber and the surface coil was positioned over the tumor. The entire assembly was then placed into a Varian 4.7T small bore MR scanner. The anesthesia chamber was then infused with a mixture of 98.5% room air and 1.5% isoflurane (maintenance anesthesia) at a rate of 1.5 L/min throughout the experiment. After scout images were obtained to localize the tumor, serial gradient echo images were obtained at ten-minute intervals over a total of 60 minutes. RSR13 was supplied as a 20-mg/ml stock solution, which was diluted with sterile phosphate-buffered saline (PBS) prior to experiments to achieve the desired dose (mg/kg) per […]. At the start of acquisition of the second image (“time 0”), a dose of RSR13 was injected i.p. RSR13 doses were administered in 0.3 ml volumes; control mice were given injections of saline. Preliminary experiments were performed to optimize the BOLD contrast, first by imaging mouse tumors without any drug, and then by administering different doses of RSR13. A dose of 200 mg/kg was then chosen for further studies. Parameters for BOLD-MRI scans were chosen to maximize sensitivity to oxygen dependent changes in the relaxation parameter T2*. The following MRI parameters were used: TR=520 ms, TE=27 ms, flip angle=45°, 18 signal averages, 230 μm spatial resolution, matrix=128×128, bandwidth=37.4 kHz, field of view=3×3 cm. Color maps indicating percent increase in signal relative to the baseline gradient echo image were created for each image. Color maps were overlaid on corresponding spin echo images for anatomic reference. After images were acquired, each individual tumor (at t=30 min.) was examined slice by slice, and a single slice which was most representative of the entire tumor was chosen. Within each representative slice, a 15×15-pixel regions of interest (ROI) was drawn around the area of maximum signal intensity (about 25% of the tumor slice area). The voxel size was 0.23 mm×0.23 mm×1 mm; thus the slice thickness was 1 mm. The same slice and ROI were then used to calculate the signal ratio corresponding to the other times for the same tumor. The following signal ratio was calculated: Intensity (t)/Intensity (t=0 min). Based on the signal parameters listed above, the MRI signal intesnsity is proportional to the MR relaxation time, T*2, which is linearly related to the level of oxygen saturation. See, e.g. Ogawa, et al., Magn. Reson. Med. 29:205–10 (1993). Images were analyzed in a blind fashion in the dose dependence studies, without knowledge of the drug doses used, to eliminate observer bias.
A paired t-test was applied to test the differences between baseline and follow-up time points. All tests of significance were two-sided, and differences were considered statistically significant when the P value was≦0.05. […]

[2] = test system: NCI-H460 human large cell lung carcinoma xenografts; test: Tumor growth delay, RSR13 and/or radiation; format: in vivo, athymic nude mice; conditions: for Tumor growth delay: n=4
Experimental: as §1
Tumors on the flanks of mice were irradiated using an Eldorado-8 ^60Co γ irradiator (Neutron Products, Inc., Dickerson, Md.). The dose rate was 1.18 Gy/min, at an SSD of 56.5 cm. The non-tumor parts of mice were shielded using lead blocks. Mice were irradiated using restraining devices constructed from 50 ml conical polyethylene tubes taped to a Styrofoam pad. Mice were irradiated 30 min after administration of RSR13 (given by intraperitoneal injection).
Tumors were measured three times weekly in two perpendicular dimensions using Vernier calipers. Volumes were calculated using the formula: volume=0.4* ab^2 (a=long dimension, b=short dimension). Treatment began when tumors reached an average volume of about 0.3 cm^3. Growth delay time (GD) was calculated as the time for treated tumors to double in volume minus the time for control tumors to double in volume, with t=0 defined as the first day of treatment. Treatment groups consisted of either untreated control, radiation alone, RSR13 alone, or RSR13 plus radiation. Each treatment group contained four mice.
A paired t-test was applied to test the differences between baseline and follow-up time points. […]

T1 sequence (P01942 2-142 limits assumed): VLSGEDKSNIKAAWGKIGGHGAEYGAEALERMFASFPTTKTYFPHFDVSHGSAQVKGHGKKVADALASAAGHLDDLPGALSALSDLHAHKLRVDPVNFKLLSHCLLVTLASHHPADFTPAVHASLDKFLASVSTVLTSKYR
T1 sequence (P02088 2-147 limits assumed): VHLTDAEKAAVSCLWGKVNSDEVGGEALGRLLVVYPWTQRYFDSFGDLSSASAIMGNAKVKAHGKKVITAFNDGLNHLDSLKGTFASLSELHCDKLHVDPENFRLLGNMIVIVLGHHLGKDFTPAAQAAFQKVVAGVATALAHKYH

In the case of Cc1cc(C)cc(NC(=O)Cc2ccc(OC(C)(C)C(=O)O)cc2)c1 [RSR13, 2-[4-(((3,5-dimethylanilino)carbonyl)methyl)phenoxy]-2-methylpropionic acid], the “Mean increase of pO2 at 50% hemoglobin saturation” value (hemoglobin) is given as 53%, the “Enhancement ratios (dose modifying factors)” value (tumors) is given as 1.3–1.8 and the “Increase of MRI signal ratio between t=10 and 30 min” value ([1]; 200 mg/kg i.p., n=8, P=0.04) is given as 14%. The “Increase of MRI signal ratio between t=10 and 20 min” value ([1]; 200 mg/kg i.p., n=8, P=0.05) was 9%, the “Changes of MRI signal ratio between t=10 and 40, 50, or 60 min” value ([1]; 200 mg/kg i.p., n=8, P≧0.05) was “not statistically significant” and the “Time of maximum MRI signal ratio after RSR13 injection” value ([1]; 200 mg/kg i.p., n=8 mice) was 30 min. The “Increase in signal in tumor tissue ROI, normalized to signal at time zero” value ([1]; FIG. 9, H460 tumor ROI 1, about two hours after time zero injection) was about 20%, the “Change in BOLD MRI signal: (Intensity (t = 30 min)/Intensity (t = 0))” value (shortened to “Change in BOLD MRI signal”) ([1]; RSR13 100 mg/kg i.p., 1 mouse (Mouse B)) was 1.13 and the “Change in BOLD MRI signal” value ([1]; RSR13 200 mg/kg i.p., 1 mouse (Mouse C)) was 1.20. For the same molecule, the “Change in BOLD MRI signal” value ([1]; RSR13 300 mg/kg i.p., 1 mouse (Mouse D)) was 1.19, the “Dose at which the signal ratio reached a plateau” value ([1]; doses 0, 100, 200, 300 mg/kg, t=30 min) was 200 mg/kg and the “Enhancement factor (growth delay RSR13 plus radiation / radiation alone)” value ([2]; 6.6/2.4, 200 mg/kg, 10 Gy 30 min later) was 2.8. For the same molecule, the Tumor growth delay ([2]; RSR13 200 mg/kg i.p. plus radiation 10 Gy given 30 min later, radiation alone 2.4 days) was 6.6 days and the Tumor growth delay ([2]; RSR13 alone, 200 mg/kg i.p.) was “did not affect tumor growth delay”.
